Test results reported in patent publication US6656906B1, “Hybrid polypeptides with enhanced pharmacokinetic properties” (Trimeris, Inc., priority 1998, dated 2003).
Where two headings read alike, the source gives them in different places. No end group written: not given here.

What was measured:
[1] = Rat pharmacokinetic studies, IV, fluorescence HPLC of plasma; format: in vivo, CD rats; details: for half-life relative to core peptide T786 / half-life relative to core peptide T1476: CD rats
Description: 250-300 g male CD rats, double jugular catheter, obtained from Charles River Laboratories were used. Peptides were injected in one jugular catheter in a volume of 200 μl of peptide solution (approximately 3.75 mg/ml), dosing solution concentration was determined using the Edelhoch method, (Edelhoch, 1967, Biochemistry 6:1948-1954) method and adjusted based on animal weight such that each animal received a dose of 2.5 mg/kg). Approximately 250-300 μl of blood was removed at predetermined time intervals (0, 15, 30 min and 1, 2, 4, 6, and 8 hours) and added to EDTA capiject tubes. Plasma was removed from pelleted cells upon centrifugation and either frozen or immediately processed for fluorescence HPLC analysis.
100 μl of sample plasma was added to 900 μl of precipitation buffer (acetonitrile, 1.0% TFA, detergent) resulting in precipitation of the majority of plasma proteins. Following centrifugation at 10,000 rpm for 10 min, 400 μl of the supernatant was removed and added to 600 μl of HPLC grade water. Serial dilutions were performed as dictated by concentration of peptide present in each sample in dilution buffer comprised of 40% precipitation buffer and 60% HPLC water. In addition to sample dilutions, serial dilutions of dosing solution were performed in buffer as well as in plasma and used to generate a standard curve relating peak area to known concentration of peptide. This curve was then used to calculate concentration of peptide in plasma taking into account all dilutions performed and quantity injected onto column.

RSV = assay: Respiratory syncytial virus plaque reduction assay (Hep2 cells); format: cell-based
Description: All necessary dilutions of peptides were performed in clean, sterile 96-well TC plate. A total of eleven dilutions for each peptide and one control well containing no peptide were assembled. The final concentration range of peptide started at 50 μg/ml or 100 μg/ml, with a total of eleven two-fold dilutions. The RSV was prepared at a concentration of 100PFU/well in 100 μl 3% EMEM, as determined by a known titer of RSV. The virus is then added to all of the wells.
The media was removed from one sub-confluent 96-well plate of Hep2 cells. The material from the dilution plate was transferred onto the cell plates starting with row 1 and then transferring row 12, row 11, etc. until all rows were transferred. Plates were placed back into the incubator for 48 hours.
The cells were checked to ensure that syncytia were present in the control wells. Media was removed and approximately 50 μls of 0.25% Crystal Violet in methanol was added to each well. The wells were rinsed immediately in water to remove excess stain and allowed to dry. Using a dissecting microscope, the number of syncytia in each well was counted.

HIV-1 [2] = tested on: HIV-1
FIG.5 = details: for half-life: CD, rat, plasma, iv, read-out: T1/2β (converted)
Excerpt: Table printed on a drawing sheet, FIG.5
The patent's description of the figure: FIG. 5.
First reader's note: The table is printed under a plasma concentration-time plot of the same two peptides, which is not copied.

[3] = target: M41Δ178 (a truncated gp41 ectodomain fusion protein lacking the T20 amino acid sequence)
HIV-2 NIHZ = assay: virus mediated cell-cell fusion assay (chronically infected CEM cells mixed with uninfected Molt-4 cells); format: cell-based
SIV isolate B670 = assay: Magi-CCR-5 infectivity assay; format: cell-based
HIV-1 [4] = assay: Human PBMC infectivity/neutralization assay; format: cell-based
Description: The prototypic assay used cell lines where the primary isolate assay utilizes PBMC, obtained through Interstate Blood Bank, activated for 2-3 days with a combination of OKT3 (0.5 μg/ml) and CD28 antibodies (0.1 μg/ml). The target cells were banded on lymphocyte separation medium (LSM), washed, and frozen. Cells were thawed as required and activated as indicated above a minimum of 2-3 days prior to assay. In this 96-well format assay, cells were at a concentration of 2×10^6/ml in 5% IL-2 medium and a final volume of 100 μl. Peptide stock solutions were made in DPBS (1 mg/ml). Peptide dilutions were performed in 20% FBS RPM1 1640/5% IL-2 complete medium.

HIV-1 9320 = assay: In vivo HuPBMC-SCID mouse model of HIV-1 9320 infection; design: species or system SCID mice; details: 67 mg/kg total daily dose, IP, bid, 8 days
Description: Female SCID mice (5-7 weeks old) received 5-10×10^7 adult human PBMC injected intraperitoneally. Two weeks after reconstitution, mice were infected IP on day 0 with 10^3 TCID50 HIV-1 9320 (AZT-sensitive isolate A018). Treatment with peptides was IP, bid, beginning day −1 and continuing through day 6. The extent of infection in blood cells, splenocytes, lymph nodes, and peritoneal cells was assayed by quantitative co-culture with human PBMC blasts weekly for three consecutive weeks following animal exsanguinations and tissue harvest (day 7, approximately 12-18 hours following the last drug treatment). Co-culture supernatants were evaluated for HIV-1 p24 antigen production as a measure of virus infection (Immunotek Coulter kits and protocol).
Two weeks after reconstitution with HuPBMCs, mice were infected IP on day 0 with 10^3 TCID50 HIV-1 9320 passed in PBMCs (AZT-sensitive isolate A018). […] The extent of infection in blood cells, splenocytes, lymph nodes, and peritoneal cells was assayed by quantitative co-culture with human PBMC blasts weekly for three consecutive weeks following animal exsanguinations and tissue harvest (day 7, approx. 12 to 18 hours following last drug treatment). Co-culture supernatants were evaluated for HIV-1 p24 antigen production as a measure of virus infection.

HIV-1 [5] = tested on: HIV-1; remark: listed apart in the source
[6] = target: M41Δ178 (a truncated gp41 ectodomain fusion protein lacking the T20 amino acid sequence); remark: listed apart in the source

Ac-WQEWDEYDASISQVNEKINQALAYIREADELWAWF-NH2 [T1301, Ac-WQEWDEYDASISQVNEKINOALAYIREADELWA WF-NH2]
half-life relative to core peptide T786 [1]: greatly enhanced half-life | half-life relative to core peptide T1476 [1]: greatly enhanced half-life | ability to inhibit RSV infection (plaque formation of HEp2 cells) (RSV): inhibit RSV infection

WMEWDREINKYTSLIHSLIEESQNQQEKNEQELL [DP397]
inhibition of HIV-1 infection compared to T1249 (HIV-1 [2]; DH012-649 strain, at higher concentrations): increased inhibition of HIV-1 infection | inhibition of HIV-1 infection compared to T1249 (HIV-1 [2]; RF-649 strain): increased inhibition of HIV-1 infection | inhibition of HIV-1 infection compared to T649 (HIV-1 [2]; T649 resistant strains RF-649, DH012-649, 3′ETVQQQ, SIM-649): markedly increased inhibition of HIV-1 infection

enfuvirtide [listing 1 of 2 here]
half-life (FIG.5): 1.6 h

Ac-WQAWDEYDASISQVNEKINQALAYIREADELWAWF-NH2 [T1302]
half-life relative to core peptide T786 [1]: greatly enhanced half-life | half-life relative to core peptide T1476 [1]: greatly enhanced half-life | ability to inhibit RSV infection (plaque formation of HEp2 cells) (RSV): inhibit RSV infection

Ac-WQEWEQKIQHWSYGLRPGWASLWEWF-NH2 [T1324]
half-life compared to the T1323 core peptide ([1]; CD male rats): significantly increased half-life

T20 (peptide)
Kd [3]: 1 to 2 nM

CC[C@H](C)[C@H](NC(=O)[C@H](CCC(N)=O)NC(=O)[C@H](C)NC(=O)[C@H](CCC(N)=O)NC(=O)[C@H](CCC(=O)O)NC(=O)[C@H](CC(C)C)NC(=O)[C@H](CC(C)C)NC(=O)[C@H](C)NC(=O)[C@@H](NC(=O)[C@@H](NC(=O)[C@H](CCCCN)NC(=O)[C@H](CCC(N)=O)NC(=O)[C@H](CCC(=O)O)NC(=O)[C@H](Cc1c[nH]c2ccccc12)NC(=O)[C@H](CCC(=O)O)NC(=O)[C@H](CCC(N)=O)NC(=O)[C@H](Cc1c[nH]c2ccccc12)NC(C)=O)[C@@H](C)CC)[C@@H](C)O)C(=O)N[C@@H](CCC(N)=O)C(=O)N[C@@H](CCC(N)=O)C(=O)N[C@@H](CCC(=O)O)C(=O)N[C@@H](CCCCN)C(=O)N[C@@H](CC(N)=O)C(=O)N[C@@H](CCC(=O)O)C(=O)N[C@@H](Cc1ccc(O)cc1)C(=O)N[C@@H](CCC(=O)O)C(=O)N[C@@H](CC(C)C)C(=O)N[C@@H](CCC(N)=O)C(=O)N[C@@H](CCCCN)C(=O)N[C@@H](CC(C)C)C(=O)N[C@@H](CC(=O)O)C(=O)N[C@@H](CCCCN)C(=O)N[C@@H](Cc1c[nH]c2ccccc12)C(=O)N[C@@H](C)C(=O)N[C@@H](CO)C(=O)N[C@@H](CC(C)C)C(=O)N[C@@H](Cc1c[nH]c2ccccc12)C(=O)N[C@@H](CCC(=O)O)C(=O)N[C@@H](Cc1c[nH]c2ccccc12)C(=O)N[C@@H](Cc1ccccc1)C(N)=O [T1249A1]
AUC[0-8] (FIG.5): 71.43 µg/h/mL | half-life (FIG.5): 4.71 h

Ac-WQAWDEYDASISDVNEKINQALAYIREADELWEWF-NH2 [T1303, RSV hybrid polypeptide]
half-life relative to core peptide T1476 [1]: greatly enhanced half-life | ability to inhibit RSV infection (plaque formation of HEp2 cells) (RSV): inhibit RSV infection

enfuvirtide [listing 2 of 2 here]
fusion inhibition (HIV-2 NIHZ): 3610.0 ng/mL | EC-50 (SIV isolate B670): 2313 | Vn/Vo = 0.1 (SIV isolate B670): >10000 | Vn/Vo = 0.1 (HIV-1 [4]; HIV-1 9320): 6000 ng/mL | Vn/Vo = 0.1 (HIV-1 [4]; HIV-1 301593 (subtype B, SI)): 3500 ng/mL | Vn/Vo = 0.1 (HIV-1 [4]; HIV-1 301714 (subtype B, NSI)): 8000 ng/mL | Vn/Vo = 0.1 (HIV-1 [4]; HIV-1 302056 (subtype B, NSI)): 800 ng/mL | Vn/Vo = 0.1 (HIV-1 [4]; HIV-1 302077 (subtype A)): 3300 ng/mL | Vn/Vo = 0.1 (HIV-1 [4]; HIV-1 302143 (SI)): 1600 ng/mL | Vn/Vo = 0.1 (HIV-1 [4]; HIV-1 G691-2 (AZT-R)): 1300 ng/mL | Vn/Vo = 0.1 (HIV-1 [4]; HIV-1 IIIB, dose required to reduce virus titer by one log): 250 ng/mL | Vn/Vo = 0.1 (HIV-1 [4]; HIV-1 pNL4-3): 3500 ng/mL | Vn/Vo = 0.1 (HIV-1 [4]; HIV-1 pNL4-3 SM (T20-R)): >10000 ng/mL | infectious virus in blood or lymph tissues (HIV-1 9320): not detectable | virus in peritoneal washes and spleen preparation (HIV-1 9320): detected | fusion inhibition (HIV-1 [5]; HIV-1 9320): 118.4 ng/mL | fusion inhibition (HIV-1 [5]; HIV-1 G691-2 (AZT-R)): 406.0 ng/mL | fusion inhibition (HIV-1 [5]; HIV-1 G762-3 (Pre-AZT)): 340.1 ng/mL | fusion inhibition (HIV-1 [5]; HIV-1 IIIB): 2.5 ng/mL | fusion inhibition (HIV-1 [5]; HIV-1 MN): 20.0 ng/mL | fusion inhibition (HIV-1 [5]; HIV-1 RF): 6.1 ng/mL | fusion inhibition (HIV-1 [5]; HIV-1 pNL4-3 SM (T20 Resistant)): 405.3 ng/mL | EC-50 (HIV-1 [2]; HIV-1 9320): 11 | Vn/Vo = 0.1 (HIV-1 [2]; HIV-1 9320): 50 | EC-50 (HIV-1 [2]; HIV-1 301714 (subtype B, NSI)): 1065 | Vn/Vo = 0.1 (HIV-1 [2]; HIV-1 301714 (subtype B, NSI)): 4000 | EC-50 (HIV-1 [2]; HIV-1 G691-2 (AZT-R)): 13 | Vn/Vo = 0.1 (HIV-1 [2]; HIV-1 G691-2 (AZT-R)): 200 | EC-50 (HIV-1 [2]; HIV-1 IIIB): 42 | Vn/Vo = 0.1 (HIV-1 [2]; HIV-1 IIIB): 80 | EC-50 (HIV-1 [2]; HIV-1 pNL4-3): 166 | Vn/Vo = 0.1 (HIV-1 [2]; HIV-1 pNL4-3): 210 | EC-50 (HIV-1 [2]; HIV-1 pNL4-3 SM (T20-R)): 90 | Vn/Vo = 0.1 (HIV-1 [2]; HIV-1 pNL4-3 SM (T20-R)): 900 | EC-50 (HIV-1 [2]; HIV-1 pNL4-3 SM (T20-R) Duke): 410 | Vn/Vo = 0.1 (HIV-1 [2]; HIV-1 pNL4-3 SM (T20-R) Duke): 2600 | EC-50 (HIV-1 [2]; HIV-1 pNL4-3 STM (T20/T649-R)): >50000 | Vn/Vo = 0.1 (HIV-1 [2]; HIV-1 pNL4-3 STM (T20/T649-R)): >50000

Ac-VYPSDEYDASISQVNEEINQALAYIRKADELLENV-NH2 [T786, RSV core peptide]
ability to inhibit RSV infection (plaque formation of HEp2 cells) (RSV): able to inhibit RSV infection

WQEWEQKITALLEQAQIQQEKNEYELQKLDKWASLWEWF (not fully specified (N-terminus, C-terminus)) [T1249 (Ac-[…]-NH2)]
Kd [6]: 1 to 2 nM
